Test results published in article PMC12649549, “Sequence Permutation Generated Lysine and Tryptophan-Rich Antimicrobial Peptides with Enhanced Therapeutic Index” (Antibiotics, 2025).
Like-named read-outs stand apart in the source and are kept apart here.

Columns and labels:
[1] = system: A. baumannii 14B0097 (Acinetobacter sp., BCRC number 14B0097)
Summary of the method: (§1)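 Broth microdilution per CLSI in Müller-Hinton broth and modified LYM broth (pH 7.4; variants with 50–300 mM NaCl, 0.5–2.5 mM MgCl2, or pH 6.5–4.5). Inoculum 5 × 10^5 CFU/mL; peptides tested at 0.78–50 µg/mL final. MIC read; three independent repeats.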

S. aureus ATCC 6538 = system: S. aureus ATCC 6538
Summary of the method: as §1

S. aureus ATCC 33591 = system: S. aureus ATCC 33591
Summary of the method: as §1

S. aureus ATCC 25923 = system: S. aureus ATCC 25923
Summary of the method: as §1

[2] = system: A. baumannii 14B0091 (Acinetobacter sp., BCRC number 14B0091)
Summary of the method: as §1

[3] = system: Pseudomonas aeruginosa Migula (ATCC 27853)
Summary of the method: as §1

[4] = system: Escherichia coli (ATCC 25922)
Summary of the method: as §1

[5] = LYM broth, 0 mM NaCl, 16 h, 37 °C
[6] = LYM broth, 50 mM NaCl, 16 h, 37 °C
[7] = LYM broth, 100 mM NaCl, 16 h, 37 °C
[8] = LYM broth, 200 mM (NaCl), 16 h, 37 °C
[9] = LYM broth, 300 mM (NaCl), 16 h, 37 °C
[10] = MH broth, 5 × 10^5 CFU/mL, 16 h, 37 °C, repeated three times

Ac-KWLAKKKKWRKWL-NH2 [Peptide W5K07]
MIC [1, 5]: 3.13 µg/mL
MIC ([1]; LYM broth, 0.5 mM MgCl2): 3.13 µg/mL
MIC ([1]; LYM broth, 1.5 mM MgCl2): 3.13 µg/mL
MIC ([1]; LYM broth, 2.5 mM MgCl2): 3.13 µg/mL
MIC [1, 6]: 6.25 µg/mL
MIC [1, 7]: 12.5 µg/mL
MIC [1, 8]: 50 µg/mL
MIC [1, 9]: >50 µg/mL
MIC ([1]; LYM broth, pH 4.5): 3.13 µg/mL
MIC ([1]; LYM broth, pH 5.5): 3.13 µg/mL
MIC ([1]; LYM broth, pH 6.5): 3.13 µg/mL
MIC [1, 10]: 12.5 µg/mL
MIC (S. aureus ATCC 6538; [5]): 6.25 µg/mL
MIC (S. aureus ATCC 6538; LYM broth, 0.5 mM MgCl2): 3.13 µg/mL
MIC (S. aureus ATCC 6538; LYM broth, 1.5 mM MgCl2): 6.25 µg/mL
MIC (S. aureus ATCC 6538; LYM broth, 2.5 mM MgCl2): 6.25 µg/mL
MIC (S. aureus ATCC 6538; [6]): 12.5 µg/mL
MIC (S. aureus ATCC 6538; [7]): 12.5 µg/mL
MIC (S. aureus ATCC 6538; [8]): 50 µg/mL
MIC (S. aureus ATCC 6538; [9]): >50 µg/mL
MIC (S. aureus ATCC 6538; LYM broth, pH 4.5): 6.25 µg/mL
MIC (S. aureus ATCC 6538; LYM broth, pH 5.5): 6.25 µg/mL
MIC (S. aureus ATCC 6538; LYM broth, pH 6.5): 3.13 µg/mL
MIC (S. aureus ATCC 6538; [10]): >50 µg/mL
MIC (S. aureus ATCC 33591; [5]): 25 µg/mL
MIC (S. aureus ATCC 33591; LYM broth, 0.5 mM MgCl2): 25 µg/mL
MIC (S. aureus ATCC 33591; LYM broth, 1.5 mM MgCl2): 25 µg/mL
MIC (S. aureus ATCC 33591; LYM broth, 2.5 mM MgCl2): 25 µg/mL
MIC (S. aureus ATCC 33591; [6]): 25 µg/mL
MIC (S. aureus ATCC 33591; [7]): 50 µg/mL
MIC (S. aureus ATCC 33591; [8]): 50 µg/mL
MIC (S. aureus ATCC 33591; [9]): >50 µg/mL
MIC (S. aureus ATCC 33591; LYM broth, pH 4.5): 25 µg/mL
MIC (S. aureus ATCC 33591; LYM broth, pH 5.5): 25 µg/mL
MIC (S. aureus ATCC 33591; LYM broth, pH 6.5): 12.5 µg/mL
MIC (S. aureus ATCC 33591; [10]): >50 µg/mL
MIC (S. aureus ATCC 25923; [5]): 6.25 µg/mL
MIC (S. aureus ATCC 25923; LYM broth, 0.5 mM MgCl2): 6.25 µg/mL
MIC (S. aureus ATCC 25923; LYM broth, 1.5 mM MgCl2): 12.5 µg/mL
MIC (S. aureus ATCC 25923; LYM broth, 2.5 mM MgCl2): 12.5 µg/mL
MIC (S. aureus ATCC 25923; [6]): 12.5 µg/mL
MIC (S. aureus ATCC 25923; [7]): 25 µg/mL
MIC (S. aureus ATCC 25923; [8]): 50 µg/mL
MIC (S. aureus ATCC 25923; [9]): >50 µg/mL
MIC (S. aureus ATCC 25923; LYM broth, pH 4.5): 12.5 µg/mL
MIC (S. aureus ATCC 25923; LYM broth, pH 5.5): 6.25 µg/mL
MIC (S. aureus ATCC 25923; LYM broth, pH 6.5): 3.13 µg/mL
MIC (S. aureus ATCC 25923; [10]): 50 µg/mL
MIC [2, 5]: 3.13 µg/mL
MIC ([2]; LYM broth, 0.5 mM MgCl2): 3.13 µg/mL
MIC ([2]; LYM broth, 1.5 mM MgCl2): 3.13 µg/mL
MIC ([2]; LYM broth, 2.5 mM MgCl2): 3.13 µg/mL
MIC [2, 6]: 6.25 µg/mL
MIC [2, 7]: 6.25 µg/mL
MIC [2, 8]: 50 µg/mL
MIC [2, 9]: >50 µg/mL
MIC ([2]; LYM broth, pH 4.5): 6.25 µg/mL
MIC ([2]; LYM broth, pH 5.5): 3.13 µg/mL
MIC ([2]; LYM broth, pH 6.5): 3.13 µg/mL
MIC [2, 10]: 12.5 µg/mL
MIC [3, 5]: 6.25 µg/mL
MIC ([3]; LYM broth, 0.5 mM MgCl2): 12.5 µg/mL
MIC ([3]; LYM broth, 1.5 mM MgCl2): 12.5 µg/mL
MIC ([3]; LYM broth, 2.5 mM MgCl2): 25 µg/mL
MIC [3, 6]: 12.5 µg/mL
MIC [3, 7]: 25 µg/mL
MIC [3, 8]: >50 µg/mL
MIC [3, 9]: >50 µg/mL
MIC ([3]; LYM broth, pH 4.5): 12.5 µg/mL
MIC ([3]; LYM broth, pH 5.5): 6.25 µg/mL
MIC ([3]; LYM broth, pH 6.5): 3.13 µg/mL
MIC [3, 10]: 50 µg/mL
MIC [4, 5]: 12.5 µg/mL
MIC ([4]; LYM broth, 0.5 mM MgCl2): 12.5 µg/mL
MIC ([4]; LYM broth, 1.5 mM MgCl2): 25 µg/mL
MIC ([4]; LYM broth, 2.5 mM MgCl2): 25 µg/mL
MIC [4, 6]: 25 µg/mL
MIC [4, 7]: 50 µg/mL
MIC [4, 8]: >50 µg/mL
MIC [4, 9]: >50 µg/mL
MIC ([4]; LYM broth, pH 4.5): 12.5 µg/mL
MIC ([4]; LYM broth, pH 5.5): 6.25 µg/mL
MIC ([4]; LYM broth, pH 6.5): 6.25 µg/mL
MIC [4, 10]: 50 µg/mL

Ac-KWLKWLAKKKKWR-NH2 [Peptide W5K04]
MIC [1, 5]: 1.56 µg/mL
MIC ([1]; LYM broth, 0.5 mM MgCl2): 1.56 µg/mL
MIC ([1]; LYM broth, 1.5 mM MgCl2): 3.13 µg/mL
MIC ([1]; LYM broth, 2.5 mM MgCl2): 3.13 µg/mL
MIC [1, 6]: 3.13 µg/mL
MIC [1, 7]: 3.13 µg/mL
MIC [1, 8]: 12.5 µg/mL
MIC [1, 9]: 50 µg/mL
MIC ([1]; LYM broth, pH 4.5): 3.13 µg/mL
MIC ([1]; LYM broth, pH 5.5): 1.56 µg/mL
MIC ([1]; LYM broth, pH 6.5): 1.56 µg/mL
MIC [1, 10]: 12.5 µg/mL
MIC (S. aureus ATCC 6538; [5]): 3.13 µg/mL
MIC (S. aureus ATCC 6538; LYM broth, 0.5 mM MgCl2): 3.13 µg/mL
MIC (S. aureus ATCC 6538; LYM broth, 1.5 mM MgCl2): 6.25 µg/mL
MIC (S. aureus ATCC 6538; LYM broth, 2.5 mM MgCl2): 6.25 µg/mL
MIC (S. aureus ATCC 6538; [6]): 6.25 µg/mL
MIC (S. aureus ATCC 6538; [7]): 25 µg/mL
MIC (S. aureus ATCC 6538; [8]): 50 µg/mL
MIC (S. aureus ATCC 6538; [9]): >50 µg/mL
MIC (S. aureus ATCC 6538; LYM broth, pH 4.5): 6.25 µg/mL
MIC (S. aureus ATCC 6538; LYM broth, pH 5.5): 6.25 µg/mL
MIC (S. aureus ATCC 6538; LYM broth, pH 6.5): 3.13 µg/mL
MIC (S. aureus ATCC 6538; [10]): 25 µg/mL
MIC (S. aureus ATCC 33591; [5]): 25 µg/mL
MIC (S. aureus ATCC 33591; LYM broth, 0.5 mM MgCl2): 25 µg/mL
MIC (S. aureus ATCC 33591; LYM broth, 1.5 mM MgCl2): 25 µg/mL
MIC (S. aureus ATCC 33591; LYM broth, 2.5 mM MgCl2): 50 µg/mL
MIC (S. aureus ATCC 33591; [6]): 50 µg/mL
MIC (S. aureus ATCC 33591; [7]): 50 µg/mL
MIC (S. aureus ATCC 33591; [8]): >50 µg/mL
MIC (S. aureus ATCC 33591; [9]): >50 µg/mL
MIC (S. aureus ATCC 33591; LYM broth, pH 4.5): 25 µg/mL
MIC (S. aureus ATCC 33591; LYM broth, pH 5.5): 12.5 µg/mL
MIC (S. aureus ATCC 33591; LYM broth, pH 6.5): 12.5 µg/mL
MIC (S. aureus ATCC 33591; [10]): >50 µg/mL
MIC (S. aureus ATCC 25923; [5]): 6.25 µg/mL
MIC (S. aureus ATCC 25923; LYM broth, 0.5 mM MgCl2): 6.25 µg/mL
MIC (S. aureus ATCC 25923; LYM broth, 1.5 mM MgCl2): 6.25 µg/mL
MIC (S. aureus ATCC 25923; LYM broth, 2.5 mM MgCl2): 6.25 µg/mL
MIC (S. aureus ATCC 25923; [6]): 12.5 µg/mL
MIC (S. aureus ATCC 25923; [7]): 25 µg/mL
MIC (S. aureus ATCC 25923; [8]): >50 µg/mL
MIC (S. aureus ATCC 25923; [9]): >50 µg/mL
MIC (S. aureus ATCC 25923; LYM broth, pH 4.5): 12.5 µg/mL
MIC (S. aureus ATCC 25923; LYM broth, pH 5.5): 6.25 µg/mL
MIC (S. aureus ATCC 25923; LYM broth, pH 6.5): 3.13 µg/mL
MIC (S. aureus ATCC 25923; [10]): 50 µg/mL
MIC [2, 5]: 1.56 µg/mL
MIC ([2]; LYM broth, 0.5 mM MgCl2): 1.56 µg/mL
MIC ([2]; LYM broth, 1.5 mM MgCl2): 3.13 µg/mL
MIC ([2]; LYM broth, 2.5 mM MgCl2): 3.13 µg/mL
MIC [2, 6]: 3.13 µg/mL
MIC [2, 7]: 3.13 µg/mL
MIC [2, 8]: 12.5 µg/mL
MIC [2, 9]: 50 µg/mL
MIC ([2]; LYM broth, pH 4.5): 3.13 µg/mL
MIC ([2]; LYM broth, pH 5.5): 3.13 µg/mL
MIC ([2]; LYM broth, pH 6.5): 1.56 µg/mL
MIC [2, 10]: 12.5 µg/mL
MIC [3, 5]: 12.5 µg/mL
MIC ([3]; LYM broth, 0.5 mM MgCl2): 6.25 µg/mL
MIC ([3]; LYM broth, 1.5 mM MgCl2): 12.5 µg/mL
MIC ([3]; LYM broth, 2.5 mM MgCl2): 12.5 µg/mL
MIC [3, 6]: 12.5 µg/mL
MIC [3, 7]: 25 µg/mL
MIC [3, 8]: >50 µg/mL
MIC [3, 9]: >50 µg/mL
MIC ([3]; LYM broth, pH 4.5): 6.25 µg/mL
MIC ([3]; LYM broth, pH 5.5): 6.25 µg/mL
MIC ([3]; LYM broth, pH 6.5): 3.13 µg/mL
MIC [3, 10]: 50 µg/mL
MIC [4, 5]: 6.25 µg/mL
MIC ([4]; LYM broth, 0.5 mM MgCl2): 12.5 µg/mL
MIC ([4]; LYM broth, 1.5 mM MgCl2): 12.5 µg/mL
MIC ([4]; LYM broth, 2.5 mM MgCl2): 12.5 µg/mL
MIC [4, 6]: 25 µg/mL
MIC [4, 7]: 50 µg/mL
MIC [4, 8]: >50 µg/mL
MIC [4, 9]: >50 µg/mL
MIC ([4]; LYM broth, pH 4.5): 6.25 µg/mL
MIC ([4]; LYM broth, pH 5.5): 3.13 µg/mL
MIC ([4]; LYM broth, pH 6.5): 3.13 µg/mL
MIC [4, 10]: 25 µg/mL
